PubChem BioAssay AID248 (DTP/NCI, 2004)
Inconclusive results and toxic doses are left out. Rule as the data show it: active = T/C of 150% or more; inactive = T/C below 125%. Bridge positions count the residues as written; N and C are the ends. Square brackets hold non-standard residues; d marks the D form. Peptide text beside a SMILES is read from it. I, II: the chains in the order shown. * marks the point of attachment. Quinoxaline2carbonyl = O=C(c1cnc2ccccc2n1)*; NMeV = CN[CH](C(=O)O)C(C)C; NMeC = CN[CH](CS)C(=O)O

Tested on: L1210 leukemia ip in BDF1 mice, survival T/C
Assay: NCI In Vivo Anticancer Drug Screen. Data for tumor model L1210 Leukemia (intraperitoneal) in B6D2F1 (BDF1) mice
Settings: endpoint: mean survival time, higher = longer survival
In short: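 Transplanted-tumor mice were given test agent; controls received vehicle only. Survival readings from the two groups were divided (treated over control).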

[1] = dose: 100.0 mg/kg/injection, schedule: Q04DX003 (ip), vehicle: saline with Tween-80
[2] = dose: 200.0 mg/kg/injection, schedule: Q04DX003 (ip), vehicle: saline with Tween-80
[3] = dose: 100.0 mg/kg/injection, schedule: Q01DX009 (ip), vehicle: Klucel (hydroxypropylcellulose) (HPC)
[4] = dose: 200.0 mg/kg/injection, schedule: Q01DX009 (ip), vehicle: Klucel (hydroxypropylcellulose) (HPC)
[5] = dose: 50.0 mg/kg/injection, schedule: Q01DX009 (ip), vehicle: saline with Tween-80
[6] = dose: 100.0 mg/kg/injection, schedule: Q01DX009 (ip), vehicle: saline with Tween-80
[7] = dose: 100.0 mg/kg/injection, schedule: Q01DX001 (ip), vehicle: carboxymethylcellulose (CMC)
[8] = dose: 200.0 mg/kg/injection, schedule: Q01DX001 (ip), vehicle: carboxymethylcellulose (CMC)
[9] = dose: 400.0 mg/kg/injection, schedule: Q01DX001 (ip), vehicle: carboxymethylcellulose (CMC)
[10] = dose: 100.0 mg/kg/injection, schedule: Q04DX003 (ip), vehicle: saline sonified
[11] = dose: 200.0 mg/kg/injection, schedule: Q04DX003 (ip), vehicle: saline sonified

Measured: T/C

CC1NC(=O)C(NC(=O)c2cnc3ccccc3n2)COC(=O)C(C(C)C)N(C)C(=O)C2CSSCC(C(=O)N(C)C(C(C)C)C(=O)OCC(NC(=O)c3cnc4ccccc4n3)C(=O)NC(C)C(=O)N2C)N(C)C1=O (stereo not given) (I: Quinoxaline2carbonyl-SA[NMeC][NMeV] / II: Quinoxaline2carbonyl-SA[NMeC][NMeV]; ester I:1-II:C, I:C-II:1; disulfide I:3-II:3; configuration not given here)
inactive: dose: 12.5 micrograms/kg/injection, schedule: Q01DX009 (ip), vehicle: other 106 % of control | dose: 25.0 micrograms/kg/injection, schedule: Q01DX009 (ip), vehicle: other 116 % of control | dose: 50.0 micrograms/kg/injection, schedule: Q01DX009 (ip), vehicle: other 119 % of control | dose: 100.0 micrograms/kg/injection, schedule: Q01DX009 (ip), vehicle: other 122 % of control

Cc1ccc(S(=O)(=O)N(C)c2ccc(C(=O)O)c3ccccc23)cc1
inactive: [1] 105 % of control | [2] 97 % of control | dose: 400.0 mg/kg/injection, schedule: Q04DX003 (ip), vehicle: saline with Tween-80 100 % of control

CCOC(=O)c1ccc(NC(=O)Nc2ccc(F)cc2)cc1
inactive: [3] 90 % of control | [4] 90 % of control

Nc1ncnc2c1ncn2C1C=COC(CO)C1O (stereo not given)
inactive: dose: 100.0 mg/kg/injection, schedule: Q01DX005 (ip), vehicle: saline 100 % of control | dose: 200.0 mg/kg/injection, schedule: Q01DX005 (ip), vehicle: saline 97 % of control

COC(=O)C(N)CCCCNC(c1ccccc1)(c1ccccc1)c1ccccc1 (stereo not given)
inactive: dose: 50.0 mg/kg/injection, schedule: Q01DX009 (ip), vehicle: saline 107 % of control | dose: 100.0 mg/kg/injection, schedule: Q01DX009 (ip), vehicle: saline 86 % of control

CCCN(CCC)CCCCO
inactive: [5] 102 % of control | [6] 95 % of control | [1] 92 % of control | dose: 200.0 mg/kg/injection, schedule: Q01DX009 (ip), vehicle: saline with Tween-80 102 % of control | [2] 102 % of control

O=C(NCc1ccco1)Nc1ccc(Cl)cc1
inactive: dose: 100.0 mg/kg/injection, schedule: Q01DX001 (ip), vehicle: saline with Tween-80 101 % of control | dose: 200.0 mg/kg/injection, schedule: Q01DX001 (ip), vehicle: saline with Tween-80 96 % of control | dose: 400.0 mg/kg/injection, schedule: Q01DX001 (ip), vehicle: saline with Tween-80 108 % of control

O=[N+]([O-])c1cc(C(F)(F)F)ccc1Oc1ccc(Cl)cc1
inactive: dose: 100.0 mg/kg/injection, schedule: Q04DX003 (ip), vehicle: Klucel (hydroxypropylcellulose) (HPC) 96 % of control | dose: 200.0 mg/kg/injection, schedule: Q04DX003 (ip), vehicle: Klucel (hydroxypropylcellulose) (HPC) 103 % of control | dose: 400.0 mg/kg/injection, schedule: Q04DX003 (ip), vehicle: Klucel (hydroxypropylcellulose) (HPC) 96 % of control

CC(C)([CH2][Sn]([CH2]C(C)(C)c1ccccc1)([CH2]C(C)(C)c1ccccc1)[CH2]C(C)(C)c1ccccc1)c1ccccc1
inactive: dose: 5.0 mg/kg/injection, schedule: Q01DX009 (sc), vehicle: olive oil, sesame oil, peanut oil 102 % of control | dose: 5.0 mg/kg/injection, schedule: Q04DX003 (sc), vehicle: olive oil, sesame oil, peanut oil 92 % of control | dose: 10.0 mg/kg/injection, schedule: Q01DX009 (sc), vehicle: olive oil, sesame oil, peanut oil 107 % of control | dose: 10.0 mg/kg/injection, schedule: Q04DX003 (sc), vehicle: olive oil, sesame oil, peanut oil 92 % of control | dose: 20.0 mg/kg/injection, schedule: Q01DX009 (sc), vehicle: olive oil, sesame oil, peanut oil 102 % of control | dose: 20.0 mg/kg/injection, schedule: Q04DX003 (sc), vehicle: olive oil, sesame oil, peanut oil 92 % of control

CCOC(=O)C(=O)Cc1nc2ccccc2[nH]c1=O
inactive: dose: 50.0 mg/kg/injection, schedule: Q01DX009 (ip), vehicle: Klucel (hydroxypropylcellulose) (HPC) 94 % of control | [3] 91 % of control | [4] 94 % of control

CCc1ccc(NC(=S)NC(=O)C(C)Oc2ccccc2)cc1 (stereo not given)
inactive: dose: 100.0 mg/kg/injection, schedule: Q04DX002 (ip), vehicle: saline 110 % of control | dose: 200.0 mg/kg/injection, schedule: Q04DX002 (ip), vehicle: saline 103 % of control | dose: 400.0 mg/kg/injection, schedule: Q04DX002 (ip), vehicle: saline 90 % of control

CCCC(CN(C)C)C(=O)c1ccccc1 (stereo not given)
inactive: dose: 25.0 mg/kg/injection, schedule: Q01DX009 (ip), vehicle: saline with Tween-80 93 % of control | dose: 25.0 mg/kg/injection, schedule: Q04DX002 (ip), vehicle: saline with Tween-80 100 % of control | [5] 89 % of control | dose: 50.0 mg/kg/injection, schedule: Q04DX002 (ip), vehicle: saline with Tween-80 93 % of control | [6] 96 % of control | dose: 100.0 mg/kg/injection, schedule: Q04DX002 (ip), vehicle: saline with Tween-80 93 % of control

O=[N+]([O-])c1ccc2cnn(CCCl)c2c1
inactive: [7] 94 % of control | [8] 100 % of control | [9] 108 % of control

O=C(CCCCCCCCCCBr)OCc1ccccc1
inactive: dose: 100.0 mg/kg/injection, schedule: Q01DX001 (ip), vehicle: saline sonified 103 % of control | dose: 200.0 mg/kg/injection, schedule: Q01DX001 (ip), vehicle: saline sonified 99 % of control | dose: 400.0 mg/kg/injection, schedule: Q01DX001 (ip), vehicle: saline sonified 105 % of control

COc1cc(C2c3c(cc(OC)c(O)c3OC)C=C(C(=O)O)C2CO)cc(OC)c1O (stereo not given)
inactive: dose: 50.0 mg/kg/injection, schedule: Q01DX001 (ip), vehicle: carboxymethylcellulose (CMC) 94 % of control | [7] 102 % of control | [8] 96 % of control | [9] 91 % of control

NC(=O)N1C(=O)CC(Sc2ccc(Cl)cc2)C1=O (stereo not given)
inactive: [7] 97 % of control | [8] 100 % of control | [9] 105 % of control

COC(=O)c1cc(N2CC2)nc(Cl)n1
inactive: dose: 25.0 mg/kg/injection, schedule: Q01DX Z (ip), vehicle: methylcellulose (MC) 101 % of control | dose: 50.0 mg/kg/injection, schedule: Q01DX Z (ip), vehicle: methylcellulose (MC) 93 % of control

O=C(COCc1ccccc1)OCc1ccccc1
inactive: dose: 100.0 mg/kg/injection, schedule: Q01DX009 (ip), vehicle: saline sonified 100 % of control | [10] 90 % of control | dose: 100.0 mg/kg/injection, schedule: Q04DX003 (ip), vehicle: saline 98 % of control | dose: 200.0 mg/kg/injection, schedule: Q01DX009 (ip), vehicle: saline sonified 102 % of control | [11] 114 % of control | dose: 200.0 mg/kg/injection, schedule: Q04DX003 (ip), vehicle: saline 94 % of control | dose: 400.0 mg/kg/injection, schedule: Q01DX009 (ip), vehicle: saline sonified 98 % of control | dose: 400.0 mg/kg/injection, schedule: Q04DX003 (ip), vehicle: saline sonified 106 % of control | dose: 400.0 mg/kg/injection, schedule: Q04DX003 (ip), vehicle: saline 94 % of control

O=C(/C=C/c1ccccc1)C1(c2ccccc2)CC1
inactive: dose: 100.0 mg/kg/injection, schedule: Q01DX001 (ip), vehicle: Klucel (hydroxypropylcellulose) (HPC) 98 % of control | dose: 200.0 mg/kg/injection, schedule: Q01DX001 (ip), vehicle: Klucel (hydroxypropylcellulose) (HPC) 100 % of control | dose: 400.0 mg/kg/injection, schedule: Q01DX001 (ip), vehicle: Klucel (hydroxypropylcellulose) (HPC) 98 % of control

CC(/C=C/C=C/c1ccccc1)=N\O
inactive: [3] 98 % of control | [4] 90 % of control | dose: 400.0 mg/kg/injection, schedule: Q01DX009 (ip), vehicle: Klucel (hydroxypropylcellulose) (HPC) 96 % of control

CC1=CCCC(C)C12CCC(C(C)(C)O)C2 (stereo not given)
inactive: dose: 50.0 mg/kg/injection, schedule: Q01DX009 (ip), vehicle: other 104 % of control | dose: 100.0 mg/kg/injection, schedule: Q01DX009 (ip), vehicle: other 98 % of control | [10] 103 % of control | dose: 200.0 mg/kg/injection, schedule: Q01DX009 (ip), vehicle: other 100 % of control | [11] 107 % of control

NC(=O)c1ccc(NCc2cnc3nc(N)nc(N)c3n2)cc1
inactive: dose: 20.0 mg/kg/injection, schedule: Q01DX009 (ip), vehicle: Klucel (hydroxypropylcellulose) (HPC) 106 % of control | dose: 40.0 mg/kg/injection, schedule: Q01DX009 (ip), vehicle: Klucel (hydroxypropylcellulose) (HPC) 101 % of control | dose: 80.0 mg/kg/injection, schedule: Q01DX009 (ip), vehicle: Klucel (hydroxypropylcellulose) (HPC) 103 % of control
